Consider three compounds from PMC5554137, “Evaluation of novel factor Xa inhibitors from Oxya chinensis sinuosa with anti-platelet aggregation activity” (Scientific Reports, 2017).

For data set [1], the system named is C57BL/6 mice. Put plainly: In vivo clotting time (aPTT after four daily injections). On the set-up: species or system mouse. As to conditions: daily intravenous injection for four consecutive days. How it is done:
(§1) To evaluate the effects of compounds 1–5 on coagulation parameters ex vivo, we measured the influence of the isolated compounds on activated partial thromboplastin time (aPTT) and prothrombin time (PT). […] The average circulating blood volume for mice is 72 mL/kg[21]. Because the average weight of mice used in this study was 27 g and the average blood volume was 2 mL, the dose of compounds 1–5 (38.6, 77.2, or 193.1 µg/kg) equaled a peripheral blood concentration of approximately 1, 2, and 5 µM, respectively.
Figure 4 Effects of compounds 1–4 on clotting and bleeding time. (A) One hour after administration (intravenous injection) of compound 1 (white box), 2 (light gray box), 3 (dark gray box), or 4 (black box), blood was collected from the mice and platelet-poor plasma (PPP) was obtained by centrifugation at 2,000 × g for 10 min at room temperature to test ex vivo activated partial thromboplastin time (aPTT). (B) Each group received a daily intravenous injection of the indicated compound for four consecutive days. Fifteen minutes after the last administration, blood samples were collected and in vivo aPTT was measured. […] Accumulated bleeding times (including periods of re-bleeding) were recorded. […] Data are presented as means ± SD of three independent experiments. *p < 0.05 vs. vehicle alone, analyzed by one-way ANOVA, followed by Tukey multiple comparison testing.

The test system of data set [2] is mouse platelet-rich plasma (PRP). Put plainly: In vitro platelet aggregation induced by U46619. Type of data set: cell-based. The settings on record: U46619 6 µM. As to the method: (§2) To study the effects of compounds 1–5 on platelet aggregation, we used mouse platelet-rich plasma (PRP) induced with various agonists as an in vitro model.
(§3) Figure 5 Effects of compounds 1–4 on agonist-induced platelet aggregation in vitro. Platelet-rich plasma (PRP) was preincubated for 5 min with different concentrations of compounds 1–4, or vehicle. Platelet aggregation was initiated with ADP (A, 10 µM), U46619 (B, 6 µM), or thrombin (C, 3 U/mL). D = 0.2% DMSO used as the vehicle control. Data are presented as means ± SD of three independent experiments. ^* p < 0.05 vs. vehicle alone, analyzed by one-way ANOVA, followed by Tukey multiple comparison testing.
(§4) The in vitro platelet aggregation assay was performed according to a previously reported method, [39]. Platelet rich plasma (PRP) was incubated with the indicated concentration of each compound in DMSO for 1, 3, 5, or 10 min. Samples were subsequently stimulated by ADP (10 μM), U46619 (6 μM), or thrombin (3 U/mL). Platelet aggregation was recorded using an aggregometer (Chronolog, Havertown, PA, USA).

Data set [3] shares this test system. Put plainly: In vitro platelet aggregation induced by ADP. Type of data set: cell-based. As to conditions: ADP 10 µM. How it is done: as §2, §3, §4
Another data set has as its target Trypsin. Put plainly: Chromogenic substrate assay, Ki determination, Trypsin. The data set is classed as biochemical, human. The settings on record: substrate S-2222. How it is done:
(§5) The inhibitor (I) constants (Ki) were determined for the inhibition of a series of human enzymes (FXa, thrombin, trypsin, plasmin, protein Ca, streptokinase, tPA, and urokinase) by each compound. Chromogenic substrate assays were performed using a Labsystems IEMS (Cergy Pontoise, France) microtiter plate reader. In each assay, the compound was tested at a minimum of seven concentrations in duplicate to obtain an inhibition curve. Assays were performed according to the following general procedure. In a 96-well microtiter plate, 25 μL of compound, inhibitor solution or buffer was added to 50 μL of substrate. A volume of 25 μL of enzyme solution was added just before the plate was placed in the microtiter plate reader for 1 h at 37 °C. The hydrolysis of the substrate yields p-nitroaniline, which was continuously monitored spectrophotometrically at 405 nm. Data were collected and the initial rate of substrate hydrolysis [Vo (mOD/minute)] was calculated. Following Michaelis-Menten kinetics, the affinity of the enzyme for the substrate, in the absence of the inhibitor (Km) and in the presence of an inhibitor (Kp), was determined to be the negative inverse x-intercept of Lineweaver–Burk plots. The dissociation constant for inhibition (Ki) was calculated using the following equation: Ki = (Km·[I])/(Kp − Km) as described by Williams and Morrison[40].

Data set [4] addresses Streptokinase (Homo sapiens). Put plainly: Chromogenic substrate assay, Ki determination, Streptokinase. The data set is classed as biochemical. The settings on record: substrate S-2251. As to the method:
as §5

Data set [5] concerns C57BL/6 mice. Put plainly: Ex vivo coagulation assay, aPTT. The data set is classed as in vivo, mouse. The settings on record: intravenous, 38 to 193 µg/kg. As to the method:
as §1
Figure 4 Effects of compounds 1–4 on clotting and bleeding time. […] Fifteen minutes after the last administration, blood samples were collected and in vivo aPTT was measured. […] Accumulated bleeding times (including periods of re-bleeding) were recorded. […] Data are presented as means ± SD of three independent experiments. *p < 0.05 vs. vehicle alone, analyzed by one-way ANOVA, followed by Tukey multiple comparison testing.
Fifteen min after the administration of each compound or saline, blood was sampled, and plasma was obtained by centrifuging at 2,000 × g for 10 min at room temperature in order to measure prothrombin time (PT) and activated partial thromboplastin time (aPTT). The aPTT and PT were determined using a Thrombotimer (Behnk Elektronik, Norderstedt, Germany), according to the manufacturer’s instructions and as described previously. […] The clotting times were recorded. […]

A further data set has as its target Urokinase (Homo sapiens, UniProt P00749). Put plainly: Chromogenic substrate assay, Ki determination, Urokinase. The data set is classed as biochemical. The settings on record: substrate S-2444. As to the method:
as §5

The target in another data set is T1, α-Thrombin (Homo sapiens, UniProt P00734).
T1 construct: FXa converts prothrombin to thrombin; purchased Haematologic Technologies (Essex Junction, VT, USA)
Put plainly: Chromogenic substrate assay, Ki determination, α-Thrombin. The data set is classed as biochemical. As to conditions: substrate S-2238. As to the method:
as §5

For the next data set, the target named is tPA (Homo sapiens, UniProt P00750). Put plainly: Chromogenic substrate assay, Ki determination, tPA. The data set is classed as biochemical. As to conditions: substrate S-2228. How it is done:
as §5

In the next data set the target is Protein Ca (Homo sapiens, UniProt P04070). Put plainly: Chromogenic substrate assay, Ki determination, Protein Ca. Type of data set: biochemical. The settings on record: substrate S-2366. As to the method:
as §5

The target in the next data set is Plasmin (Homo sapiens, UniProt P00747). Put plainly: Chromogenic substrate assay, Ki determination, Plasmin. The data set is classed as biochemical. As to conditions: substrate S-2251. As to the method: as §5
In a further data set the target is T2, FXa (Homo sapiens, UniProt P00742).
T2 construct: purchased Haematologic Technologies (Essex Junction, VT, USA)
Put plainly: Chromogenic substrate assay, Ki determination, Factor Xa. The data set is classed as biochemical. The settings on record: substrate S-2765 (Table 3); mean ± SD (n = 5). How it is done:
as §5

Data set [6] deals with mouse platelet-rich plasma (PRP). Put plainly: In vitro platelet aggregation induced by thrombin. The data set is classed as cell-based. As to conditions: thrombin 3 U/mL. How it is done:
as §2, §3, §4

The subject of another data set is platelet aggregation. Details: method as in PMID 20139357. As to conditions: cited from earlier work.
The next data set has as its target thrombin (Homo sapiens, UniProt P00734). On the set-up: method as in PMID 20139357. As to conditions: cited from earlier work.
Another data set relates to rat. On the set-up: method as in PMID 20139357, PMID 15748242. The settings on record: higher doses, rat tail-bleeding time model; cited from earlier work.
Another data set concerns bleeding time models. On the set-up: method as in PMID 20139357, PMID 15748242. The settings on record: antithrombotic doses below the ED50 required for antithrombotic efficacy; cited from earlier work.
In data set [7] the test system is C57BL/6 mice. Put plainly: FeCl3-induced arterial thrombosis mouse model. The data set is classed as in vivo. The settings on record: FeCl3 injury, tirofiban 0.2 or 0.4 mg/kg (dose for this value not stated).

A word on the Ki: it is the dissociation constant of the complex between target and ligand, obtained from inhibition or displacement. A lower Ki goes with higher affinity.

Chain of Protein Ca (P04070 212-461 limits assumed): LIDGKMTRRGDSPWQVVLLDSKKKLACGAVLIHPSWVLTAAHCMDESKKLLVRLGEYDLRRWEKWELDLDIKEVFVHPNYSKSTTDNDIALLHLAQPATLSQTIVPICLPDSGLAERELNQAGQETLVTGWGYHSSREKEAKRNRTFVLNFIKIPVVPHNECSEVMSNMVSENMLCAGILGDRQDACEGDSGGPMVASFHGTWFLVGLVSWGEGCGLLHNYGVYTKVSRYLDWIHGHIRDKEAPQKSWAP
Chain of Protein Ca (P04070 43-197 limits assumed): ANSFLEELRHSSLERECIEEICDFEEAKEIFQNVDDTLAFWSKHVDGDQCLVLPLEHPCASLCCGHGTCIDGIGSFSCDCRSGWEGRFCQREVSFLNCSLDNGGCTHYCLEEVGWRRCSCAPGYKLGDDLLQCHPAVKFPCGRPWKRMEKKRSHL
Chain of tPA (P00750 36-562): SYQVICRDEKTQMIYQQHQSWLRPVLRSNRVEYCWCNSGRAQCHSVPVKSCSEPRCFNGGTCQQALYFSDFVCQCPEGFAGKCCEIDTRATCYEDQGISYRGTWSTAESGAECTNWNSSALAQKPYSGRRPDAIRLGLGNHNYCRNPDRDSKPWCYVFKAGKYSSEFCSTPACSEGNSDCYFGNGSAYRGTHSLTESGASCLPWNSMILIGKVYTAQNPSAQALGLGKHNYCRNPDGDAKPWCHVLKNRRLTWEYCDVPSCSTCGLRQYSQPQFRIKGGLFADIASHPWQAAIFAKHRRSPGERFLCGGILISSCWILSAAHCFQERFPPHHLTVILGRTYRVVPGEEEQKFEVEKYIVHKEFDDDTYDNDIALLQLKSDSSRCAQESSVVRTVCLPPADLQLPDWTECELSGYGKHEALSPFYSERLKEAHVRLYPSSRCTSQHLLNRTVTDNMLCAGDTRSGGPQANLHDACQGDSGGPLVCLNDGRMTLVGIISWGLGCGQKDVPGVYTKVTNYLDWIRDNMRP
T2 sequence (P00742 235-488 limits assumed): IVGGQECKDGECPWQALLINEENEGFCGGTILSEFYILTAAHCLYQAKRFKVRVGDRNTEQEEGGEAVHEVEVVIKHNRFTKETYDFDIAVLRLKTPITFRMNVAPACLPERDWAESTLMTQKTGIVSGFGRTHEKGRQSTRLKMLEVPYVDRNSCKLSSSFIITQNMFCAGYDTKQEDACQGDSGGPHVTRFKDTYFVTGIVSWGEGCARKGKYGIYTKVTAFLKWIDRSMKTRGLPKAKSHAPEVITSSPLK
T2 sequence (P00742 41-179 limits assumed): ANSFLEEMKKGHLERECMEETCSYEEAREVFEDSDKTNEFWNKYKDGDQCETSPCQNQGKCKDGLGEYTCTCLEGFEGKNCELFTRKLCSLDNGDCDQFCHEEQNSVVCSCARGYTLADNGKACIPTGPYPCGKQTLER
Chain of Plasmin (P00747 581-810 limits assumed): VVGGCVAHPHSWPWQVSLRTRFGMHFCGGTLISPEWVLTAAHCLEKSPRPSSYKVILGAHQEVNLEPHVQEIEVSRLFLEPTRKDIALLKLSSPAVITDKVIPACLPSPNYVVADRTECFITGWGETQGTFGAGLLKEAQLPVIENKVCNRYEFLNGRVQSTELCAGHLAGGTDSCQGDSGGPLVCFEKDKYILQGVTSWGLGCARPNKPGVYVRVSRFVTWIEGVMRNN
Chain of Plasmin (P00747 97-580 limits assumed): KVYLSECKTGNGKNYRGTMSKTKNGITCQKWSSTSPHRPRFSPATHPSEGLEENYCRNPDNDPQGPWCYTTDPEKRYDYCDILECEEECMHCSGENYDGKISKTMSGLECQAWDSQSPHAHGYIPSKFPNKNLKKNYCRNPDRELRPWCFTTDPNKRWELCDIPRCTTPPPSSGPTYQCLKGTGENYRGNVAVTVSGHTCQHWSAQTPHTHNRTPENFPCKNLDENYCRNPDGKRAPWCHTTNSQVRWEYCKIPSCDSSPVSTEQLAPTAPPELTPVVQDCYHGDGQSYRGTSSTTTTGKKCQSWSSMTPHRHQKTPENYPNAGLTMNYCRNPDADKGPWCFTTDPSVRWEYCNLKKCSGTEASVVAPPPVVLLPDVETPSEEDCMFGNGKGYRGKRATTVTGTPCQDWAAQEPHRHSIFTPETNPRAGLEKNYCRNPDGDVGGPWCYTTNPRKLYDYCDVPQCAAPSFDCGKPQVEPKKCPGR
Chain of Streptokinase (Homo sapiens) (P00747 581-810 limits assumed): as the sequence (P00747 581-810 limits assumed) above

For `CC(=O)N/C=C/c1ccc2c(c1)O[C@H](c1ccc(O)c(O)c1)[C@@H](NC(C)=O)O2` [Compound 5, (2 R,3 S)-2-(3′,4′-dihydroxyphenyl)-3-acetylamino-7-(N-acetyl-2″-aminethylene)-1,4-benzodioxane], the “blood clotting time in vivo (anticoagulant effect)” value in the data set with C57BL/6 mice [1] was “not”. The “platelet aggregation induced by U46619” value in [2] was “did not affect”. In addition, the “platelet aggregation induced by ADP” value in data set [3] is given as “did not affect”. The Ki (at Trypsin; in data set [4]; on Urokinase; at α-Thrombin; at tPA; at Protein Ca) was above 250 µM each time. Besides, the Ki on Plasmin and at FXa was above 250 µM throughout. The “activated partial thromboplastin time (aPTT), ex vivo” value with C57BL/6 mice [5] is listed as “did not affect”. Further, the thrombin-induced platelet aggregation entry in [6] is reported as “did not affect”.
Turning to `O=C(NC[C@H]1CN(c2ccc(N3CCOCC3=O)cc2)C(=O)O1)c1ccc(Cl)s1` [rivaroxaban], in the data set on platelet aggregation, the “platelet aggregation induced by ADP, thrombin, or U46619” value was “did not affect”. For the same compound, on thrombin, the generation of thrombin entry is “prolonged”. The figures for the bleeding times entry in the data set with rat and with bleeding time models were “dose-dependently prolonged” and “not significantly affected”, respectively.
With `CCCCS(=O)(=O)N[C@@H](Cc1ccc(OCCCCC2CCNCC2)cc1)C(=O)O` [tirofiban], in the data set on C57BL/6 mice [7], the “time to growth of large thrombi” value was 61.1 ± 5.1 min.
